The source of these data is patent US4273777A, “Methods of treating mammals suffering from inflammation and pain” (Laboratorios Bago S.A., priority 1980, dated 1981).

Data set [1] in a line: Influence on the gastro-intestinal tract (ulceration of the gastric epithelium, pylorus ligated, Shay et al.). Type of data set: in vivo, rat (Sprague Dawley). Here is the method: Influence on the gastro-intestinal tract
Ten male rats of Sprague Dawley strain, weighing 200-300 g were used for each compound tested. According to the method of Shay et al. (Shay, H., Komapov. S. A., Feb. S. S., Meranir, D., Gruenstein, M., Siplet, H. Gastroenterology 5, 43, 1945), under anesthesia, the pylorus was ligated and 4 hours later test compounds were orally administered. The animal was sacrificed 1 hour after compound administration. The stomach was removed and examined for macroscopic damage. The ulceration of the gastric epithelium was evaluated by the following evaluation: 0=no hemorrhage sites; 1=some isolated hemorrhagic sites; 2=redness of the gastric epithelium; 3=1 to 5 small ulcers with a diameter smaller than 3 mm; 4=many small ulcers; 5=ulcers--greater than 3 mm; 6=perforated ulcer.

Data set [2] is described as follows: Tail pressure test (analgesic activity). The data set is classed as in vivo, mouse (Rockland). As to conditions: oral; control (water) 0; dose mg/kg: ASA 100, pivaloyloxymethyl TPA ester 166 and 66, CPA 50, TPA 47, phthalidyl CPA ester 72, pivaloyloxymethyl CPA ester 69, xylyl anthranylates 77 (phthalidyl)/74 (pivaloyloxymethyl), TAA 50, its phthalidyl ester 73.5, pivaloyloxymethyl ester 82. Here is the method: Tail pressure test: Ten male mice of Rockland strain weighing 20-25 g were used for each compound tested. The response threshold on applying pressure to the tail was determined with an analgesy meter at 15 and 60 minutes after oral administration of the test compound. The pressure at which a struggle was elicited was read.

A short description of data set [3]: Randall-Selitto test (analgesic activity, carrageenin inflamed foot). Type of data set: in vivo, mouse (Rockland). As to conditions: oral, 30 minutes before carrageenin; control (water) 0; doses as for tail pressure (pivaloyloxymethyl TPA ester 166 mg/kg, 66 mg/kg). Here is the method:
Randall-Selitto's method: Ten male mice of Rockland strain weighing 25 g were used for each compound tested. 0.1 ml of 1% carrageenin saline suspension was injected into the subplantar region of the right foot. The test compounds were orally administered 30 minutes before the injection. At hourly intervals for 3 hours after the carrageenin injection, the pain threshold for the inflammed feet was measured determining the amount of pressure with an analgesy meter.

Data set [4] can be described thus: Carrageenin induced edema test (anti-inflammatory activity). Set-up: species or system rat (Sprague Dawley). As to conditions: rat, in vivo. Here is the method:
Anti-inflammatory Activity (Carrageenin induced edema test)
Fifteen to twenty male rats of Sprague Dawley strain weighing 150-200 g, were employed for each compound tested. 0.1 ml of 1% carrageenin saline suspension was injected into the subplantar region of the right hind-paw. The test compounds were orally administered 30 minutes prior to the injection of carrageenin and the foot volume was determined 1, 3 and 5 hours after the injection of carrageenin. The percent swelling in the foot was obtained by comparing the volume before and after the injection of carrageenin, and the rate of inhibition in the treated animals was calculated.
In general terms: Carrageenan injected into the paw causes an acute inflammation.

The mark [5] stands for this setting: oral, 1 hour after compound, score 0=no hemorrhage sites to 6=perforated ulcer, control 3.0, dose mg/kg: phenylbutazone 75, ASA 100, TPA 47, pivaloyloxymethyl TPA ester 66, CPA 150, phthalidyl CPA ester 216, pivaloyloxymethyl CPA ester 207, xylyl anthranylates 186/196, TAA 60, its esters 88/84.5.
The mark [6] stands for this setting: versus control (distilled water) 3.0, oral.

Take `O=C(O)c1cccnc1Nc1cccc(C(F)(F)F)c1` [2-(3'-trifluoromethyl-anilino)-3-pyridinecarboxylic acid, reference compound]: the “Evaluation (ulceration of the gastric epithelium)” value in data set [1] (setting [5]) stood at 3.9. In addition, the “Increase (of ulceration evaluation over control)” value (from here on “Increase”) in data set [1] (setting [6]) turned out to be 0.9.

With `CC(=O)Oc1ccccc1C(=O)O` [Acetylsalicylic acid (ASA), Acetylsalicylic acid, reference compound], in data set [1] (rat, in vivo, po), the “Evaluation (ulceration of the gastric epithelium)” value was determined as 4.1 and the “Increase” value came out at 1.1.

Consider `O=C(O)c1ccccc1Nc1cccc(C(F)(F)F)c1` [N-(3'-trifluorotolyl)-anthranylic acid, reference compound], for which the “Relative strength, Tail pressure test” value in data set [2] was 0.5. The “Relative strength, Randall-Selitto test” value in data set [3] came out at 5.3. The “Evaluation (ulceration of the gastric epithelium)” value in data set [1] (setting [5]) worked out at 4.9. Besides, in data set [1] (setting [6]), the “Increase” value amounted to 1.9.

For `CCCCC1C(=O)N(c2ccccc2)N(c2ccccc2)C1=O` [Phenylbutazone, reference compound], in data set [1] (rat, in vivo, po), the “Evaluation (ulceration of the gastric epithelium)” value was found to be 5.5 and the “Increase” value came to 2.5.

Take `Cc1cccc(Nc2ccccc2C(=O)OC2OC(=O)c3ccccc32)c1C` (stereo not shown) [Phthalidyl N-(2',3'-xylyl) anthranylate]: in data set [2], the “Relative strength, Tail pressure test” value is reported as 0.56. The “Relative strength, Randall-Selitto test” value in data set [3] is recorded as 1.37. Besides, the “Evaluation (ulceration of the gastric epithelium)” value in data set [1] (setting [5]) came out at 3.3. Moreover, the “Increase” value in data set [1] (setting [6]) stood at 0.3.

In the case of `O=C(OC1OC(=O)c2ccccc21)c1ccccc1Nc1cccc(C(F)(F)F)c1` (stereo not shown) [Phthalidyl N-(3'-trifluorotolyl) anthranylate], the “Relative strength, Tail pressure test” value in data set [2] is given as 0.74. The “Relative strength, Randall-Selitto test” value in data set [3] turned out to be 10.6. For the same compound, in data set [1] (setting [5]), the “Evaluation (ulceration of the gastric epithelium)” value amounted to 3.5. Besides, the “Increase” value in data set [1] (setting [6]) is on record as 0.5.

As to `Cc1c(Cl)cccc1Nc1ncccc1C(=O)OC1OC(=O)c2ccccc21` (stereo not shown) [Phthalydil 2(3'-chloro-2'-methylanilino)pyridine 3-carboxylate], in data set [1] (setting [5]), the “Evaluation (ulceration of the gastric epithelium)” value was 3.6. The “Increase” value in data set [1] (setting [6]) is recorded as 0.6.

Regarding `Cc1c(Cl)cccc1Nc1ncccc1C(=O)OCOC(=O)C(C)(C)C` [Pivaloyloxymethyl 2-(3'-chloro-2'-methylanilino)-pyridine-3-carboxylate], the “Evaluation (ulceration of the gastric epithelium)” value in data set [1] (setting [5]) worked out at 3.0.

In the case of `CC(C)(C)C(=O)OCOC(=O)c1cccnc1Nc1cccc(C(F)(F)F)c1` [Pivaloyloxymethyl 2-(3'-trifluoromethylanilino)-pyridine-3-carboxylate], the “anti-inflammatory activity, in words” value in data set [4] is reported as “act as anti-inflammatory agent more than as antinociceptive agents”. Besides, in data set [1] (setting [5]), the “Evaluation (ulceration of the gastric epithelium)” value is on record as 3.2. For the same compound, the “Increase” value in data set [1] (setting [6]) is recorded as 0.2.

Take `Cc1cccc(Nc2ccccc2C(=O)OCOC(=O)C(C)(C)C)c1C` [Pivaloyloxymethyl N-(2',3'-xylyl) anthranylate]: the “Evaluation (ulceration of the gastric epithelium)” value in data set [1] (setting [5]) is reported as 3.4. The “Increase” value in data set [1] (setting [6]) came out at 0.4.

Take `CC(C)(C)C(=O)OCOC(=O)c1ccccc1Nc1cccc(C(F)(F)F)c1` [Pivaloyloxymethyl N-(3'-trifluorotolyl) anthranylate]: in data set [1] (setting [5]), the “Evaluation (ulceration of the gastric epithelium)” value worked out at 3.6. The “Increase” value in data set [1] (setting [6]) amounted to 0.6.
